# Test results from the supplement of paper PMC10307832.
# Experiments:
# Assay in all cases: relative viability (nuclei count vs DMSO), 5 days (fraction); higher = more cells survive
# NCI-H1792 = system: NCI-H1792
# Method in brief: (§1)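 Cells from lung cancer lines were seeded into 1536-well plates and, one day later, dosed by pin tool. Treatments were either a single drug or a fixed dose of an anchor drug with five library-drug doses (not always all listed) in √10 steps. After 5 days, nuclei were stained in a one-step fixation (final 0.05% Triton X-100, 1% formaldehyde, 1 ug/ml Hoechst) and counted on 4× images, and relative viability is the treated-to-vehicle nuclei ratio, as the median of duplicate plates.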
# NCI-H1793 = system: NCI-H1793
# Method in brief: as §1
# NCI-H1975 = system: NCI-H1975
# Method in brief: as §1
# NCI-H2126 = system: NCI-H2126
# Method in brief: as §1
# NCI-H2228 = system: NCI-H2228
# Method in brief: as §1
# NCI-H441 = system: NCI-H441
# Method in brief: as §1
# NCI-H520 = system: NCI-H520
# Method in brief: as §1
# NCI-H727 = system: NCI-H727
# Method in brief: as §1
# NCI-H838 = system: NCI-H838
# Method in brief: as §1
# PC-3 [JPC-3] = system: PC-3 [JPC-3]
# Method in brief: as §1
# SK-MES-1 = system: SK-MES-1
# Method in brief: as §1
# SW 1573 = system: SW 1573
# Method in brief: as §1
smiles,measurement,setting,value
Nc1cccc2c1CN(C1CCC(=O)NC1=O)C2=O (stereo not given) [Lenalidomide] + C[C@]1(O)C[C@@H](c2nc(-c3ccc4ccc(-c5ccccc5)nc4c3)c3c(N)nccn32)C1 [Linsitinib] (partner 1 µM),relative viability,NCI-H1792; first compound 2.53 µM,0.509
same,relative viability,NCI-H1792; first compound 8 µM,0.402
same,relative viability,NCI-H1793; first compound 0.253 µM,1.02
same,relative viability,NCI-H1793; first compound 0.8 µM,0.728
same,relative viability,NCI-H1793; first compound 2.53 µM,1.13
same,relative viability,NCI-H1793; first compound 8 µM,0.512
same,relative viability,NCI-H1975; first compound 0.253 µM,1.15
same,relative viability,NCI-H1975; first compound 0.8 µM,1
same,relative viability,NCI-H1975; first compound 2.53 µM,1.2
same,relative viability,NCI-H1975; first compound 8 µM,1.12
same,relative viability,NCI-H2126; first compound 0.253 µM,0.692
same,relative viability,NCI-H2126; first compound 0.8 µM,0.681
same,relative viability,NCI-H2126; first compound 2.53 µM,0.702
same,relative viability,NCI-H2126; first compound 8 µM,0.486
same,relative viability,NCI-H2228; first compound 0.253 µM,0.598
same,relative viability,NCI-H2228; first compound 0.8 µM,0.774
same,relative viability,NCI-H2228; first compound 2.53 µM,0.802
same,relative viability,NCI-H2228; first compound 8 µM,0.639
same,relative viability,NCI-H441; first compound 0.253 µM,0.547
same,relative viability,NCI-H441; first compound 0.8 µM,0.345
same,relative viability,NCI-H441; first compound 2.53 µM,0.692
same,relative viability,NCI-H441; first compound 8 µM,0.555
same,relative viability,NCI-H520; first compound 0.253 µM,0.974
same,relative viability,NCI-H520; first compound 0.8 µM,1.15
same,relative viability,NCI-H520; first compound 2.53 µM,1.12
same,relative viability,NCI-H520; first compound 8 µM,0.96
same,relative viability,NCI-H727; first compound 0.253 µM,0.311
same,relative viability,NCI-H727; first compound 2.53 µM,0.308
same,relative viability,NCI-H727; first compound 8 µM,0.288
same,relative viability,NCI-H838; first compound 0.253 µM,1.02
same,relative viability,NCI-H838; first compound 0.8 µM,0.98
same,relative viability,NCI-H838; first compound 2.53 µM,1.13
same,relative viability,NCI-H838; first compound 8 µM,0.968
same,relative viability,PC-3 [JPC-3]; first compound 0.253 µM,0.969
same,relative viability,PC-3 [JPC-3]; first compound 0.8 µM,0.923
same,relative viability,PC-3 [JPC-3]; first compound 2.53 µM,1
same,relative viability,PC-3 [JPC-3]; first compound 8 µM,1.09
same,relative viability,SK-MES-1; first compound 0.253 µM,1.05
same,relative viability,SK-MES-1; first compound 0.8 µM,1.03
same,relative viability,SK-MES-1; first compound 2.53 µM,1.13
same,relative viability,SK-MES-1; first compound 8 µM,0.979
same,relative viability,SW 1573; first compound 0.253 µM,0.772
same,relative viability,SW 1573; first compound 0.8 µM,0.866
same,relative viability,SW 1573; first compound 2.53 µM,0.792
same,relative viability,SW 1573; first compound 8 µM,0.791
